Literature values, collected in patent US10391078B2, “Methods for the treatment of mast cell related disorders with mast cell stabilizers” (Respivant Sciences GmbH, priority 2015, dated 2019).
Where two headings read alike, the source gives them in different places.

oral bioavailability: less than 1%
oral bioavailability (listed as cromolyn): about 1%
Compound: O=C(O)c1cc(=O)c2c(OCC(O)COc3cccc4oc(C(=O)O)cc(=O)c34)cccc2o1 [cromolyn sodium]
